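Interpolation was linear, between the two tested concentrations surrounding the appropriate level; five concentrations were tested over 48 hours in 96-well plates. GI50 is the concentration that inhibits growth by half.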 Activity calls are given as the source filed them. No stated cut-off is given here; in the data, active = GI50 up to about 1.1 µM and inactive = higher.
Key:
Test in all cases: NCI-60 cell line screen, 48 h
[1] = tested on: OVCAR-3
[2] = tested on: UO-31
[3] = tested on: NCI/ADR-RES
[4] = tested on: MDA-MB-435
[5] = tested on: UACC-257
[6] = tested on: SR
[7] = tested on: SNB-19
[8] = tested on: HL-60
[9] = tested on: EKVX
[10] = tested on: SW-620
[11] = tested on: A549
[12] = tested on: SF-268
[13] = tested on: OVCAR-5
[14] = tested on: CCRF-CEM
[15] = tested on: ACHN
[16] = tested on: OVCAR-8
[17] = tested on: CAKI-1
[18] = tested on: SK-MEL-2
[19] = tested on: Hs-578T

SMILES | GI50 [1] | GI50 [2] | GI50 [3] | GI50 [4] | GI50 [5] | GI50 [6] | GI50 [7] | GI50 [8] | GI50 [9] | GI50 [10] | GI50 [11] | GI50 [12] | GI50 [13] | GI50 [14] | GI50 [15] | GI50 [16] | GI50 [17] | GI50 [18] | GI50 [19]
CCC(C)N1CN(c2ccccc2)C2(CCN(CCCSc3ccc(F)cc3)CC2)C1=O (stereo not given) | 2.33 µM (inactive) | 2.42 µM (inactive) | 3.05 µM (inactive) | 3.05 µM (inactive) | 2.74 µM (inactive) | 3.32 µM (inactive) | 5.52 µM (inactive) | 3.79 µM (inactive) | 3.33 µM (inactive) | 4.06 µM (inactive) | 3.94 µM (inactive) | 6.75 µM (inactive) | 2.1 µM (inactive) | 2.44 µM (inactive) | 3.15 µM (inactive) | 6.17 µM (inactive) | 3.45 µM (inactive) |  | 
CC(=O)O[C@@H]1O[Si](C(C)(C)C)(C(C)(C)C)[C@H](C)[C@H]1C | 24 µM (inactive) | > 100 µM (inactive) | > 100 µM (inactive) | 94.8 µM (inactive) | > 100 µM (inactive) | > 100 µM (inactive) | > 100 µM (inactive) | 21.9 µM (inactive) | 41.7 µM (inactive) | 40 µM (inactive) | 41 µM (inactive) |  | > 100 µM (inactive) | 40.6 µM (inactive) | > 100 µM (inactive) | > 100 µM (inactive) | > 100 µM (inactive) | > 100 µM (inactive) | 
O=c1[nH]c2c(C(F)(F)F)c(Cl)c(-c3ccccc3)nc2o1 | 17.3 µM (inactive) | 12.5 µM (inactive) | 16.6 µM (inactive) | 28.3 µM (inactive) | 14.1 µM (inactive) |  | 25.5 µM (inactive) | 1.41 µM (inactive) | 14.8 µM (inactive) | 33.8 µM (inactive) | 19.8 µM (inactive) | 54.7 µM (inactive) | 11.8 µM (inactive) | 10 µM (inactive) | 65.5 µM (inactive) | 31.3 µM (inactive) | 34.4 µM (inactive) | 18.5 µM (inactive) | 55.6 µM (inactive)
COc1ccc(/C=C2\CCC(C)C3=C2N=c2s/c(=C/c4cccc(Br)c4)c(=O)n2C3c2ccc(OC)c(OC)c2)cc1OC (stereo not given) |  |  |  | > 100 µM (inactive) | > 100 µM (inactive) | > 100 µM (inactive) | > 100 µM (inactive) | > 100 µM (inactive) | > 100 µM (inactive) | > 100 µM (inactive) | > 100 µM (inactive) | > 100 µM (inactive) | > 100 µM (inactive) | > 100 µM (inactive) | > 100 µM (inactive) | > 100 µM (inactive) | > 100 µM (inactive) | > 100 µM (inactive) | > 100 µM (inactive)
OCCSCc1cc(Cl)cc(Cl)c1O | > 100 µM (inactive) | > 100 µM (inactive) | > 100 µM (inactive) | > 100 µM (inactive) | > 100 µM (inactive) |  | > 100 µM (inactive) |  | > 100 µM (inactive) | > 100 µM (inactive) | > 100 µM (inactive) | > 100 µM (inactive) | > 100 µM (inactive) | > 100 µM (inactive) | > 100 µM (inactive) | > 100 µM (inactive) | > 100 µM (inactive) |  | > 100 µM (inactive)
CC1N[B@@-](C)(c2ccc(C(F)(F)F)cc2)OC1c1ccccc1 (stereo not given in full) | 57.8 µM (inactive) | 34.7 µM (inactive) | > 100 µM (inactive) | > 100 µM (inactive) | > 100 µM (inactive) | 31.3 µM (inactive) | > 100 µM (inactive) | 12.7 µM (inactive) | 41.4 µM (inactive) | > 100 µM (inactive) | > 100 µM (inactive) | > 100 µM (inactive) | > 100 µM (inactive) | 42.6 µM (inactive) | 36.9 µM (inactive) | > 100 µM (inactive) |  |  | 
CCOC(=O)c1nc2ccccc2nc1Oc1ccc(C#N)cc1 | > 100 µM (inactive) | > 100 µM (inactive) | > 100 µM (inactive) | > 100 µM (inactive) | > 100 µM (inactive) |  | > 100 µM (inactive) | > 100 µM (inactive) | > 100 µM (inactive) | > 100 µM (inactive) | > 100 µM (inactive) | > 100 µM (inactive) | > 100 µM (inactive) | > 100 µM (inactive) | > 100 µM (inactive) | > 100 µM (inactive) |  | > 100 µM (inactive) | > 100 µM (inactive)
CCN1CCN=C2c3cc(OC)ccc3Nc3c([N+](=O)[O-])ccc1c32 |  |  |  | 1.01 µM (active) | 1.83 µM (inactive) | 0.244 µM (active) |  | 0.516 µM (active) | 2.12 µM (inactive) | 0.472 µM (active) | 0.667 µM (active) | 0.443 µM (active) |  | 0.571 µM (active) |  | 0.621 µM (active) | 0.485 µM (active) |  | 
CC(=O)[C@@H]1[C@@H](OC(=O)CCC(C)COC2OC(CO)C(O)C(O)C2O)C[C@H]2[C@@H]3CC=C4C[C@@H](OC5OC(CO)C(OC6OC(C)C(O)C(O)C6O)C(O)C5OC5OC(C)C(O)C(O)C5O)CC[C@]4(C)[C@H]3CC[C@]12C (stereo not given in full) | > 100 µM (inactive) | > 100 µM (inactive) |  | > 100 µM (inactive) | > 100 µM (inactive) | > 100 µM (inactive) | > 100 µM (inactive) |  | > 100 µM (inactive) | 64.7 µM (inactive) | > 100 µM (inactive) | > 100 µM (inactive) | > 100 µM (inactive) | > 100 µM (inactive) | > 100 µM (inactive) | > 100 µM (inactive) | > 100 µM (inactive) | > 100 µM (inactive) | 
CC(O)c1nc(C#N)c(N)o1 (stereo not given) | > 100 µM (inactive) | > 100 µM (inactive) | > 100 µM (inactive) |  | > 100 µM (inactive) |  | > 100 µM (inactive) | > 100 µM (inactive) | > 100 µM (inactive) | > 100 µM (inactive) | > 100 µM (inactive) | > 100 µM (inactive) | > 100 µM (inactive) | > 100 µM (inactive) | > 100 µM (inactive) | > 100 µM (inactive) | > 100 µM (inactive) | > 100 µM (inactive) | > 100 µM (inactive)
CCCNc1c(Cl)cc(Cl)c2[nH]c3ccccc3c(=O)c12 | 48.2 µM (inactive) | 32.1 µM (inactive) | > 100 µM (inactive) | 39.9 µM (inactive) | 48.3 µM (inactive) | 58.3 µM (inactive) | 18.4 µM (inactive) | 16.2 µM (inactive) | 35.6 µM (inactive) | 88.5 µM (inactive) | 35.1 µM (inactive) |  | > 100 µM (inactive) | 49.3 µM (inactive) | 24 µM (inactive) | 40.3 µM (inactive) | 62.5 µM (inactive) | 39.9 µM (inactive) | 
CCOC(=O)c1ccc(/N=C2\Sc3nc4ccccc4n3\C2=N\c2ccc(C(=O)OCC)cc2)cc1 | 12.9 µM (inactive) |  | 22.1 µM (inactive) | 59.2 µM (inactive) | 31.5 µM (inactive) |  | 12.1 µM (inactive) | > 100 µM (inactive) | 42.6 µM (inactive) | 21.5 µM (inactive) | 25.2 µM (inactive) | 22.3 µM (inactive) | 60 µM (inactive) | > 100 µM (inactive) | 22.3 µM (inactive) | 29.4 µM (inactive) | 23 µM (inactive) | 39.3 µM (inactive) | 22.6 µM (inactive)
CO[C@@](c1ccccc1)(c1nc(C#N)c(N)o1)C(F)(F)F | > 100 µM (inactive) | 68.1 µM (inactive) | > 100 µM (inactive) | > 100 µM (inactive) | 85.5 µM (inactive) |  | > 100 µM (inactive) |  | > 100 µM (inactive) | 86.5 µM (inactive) | > 100 µM (inactive) |  |  | 26.5 µM (inactive) | > 100 µM (inactive) | > 100 µM (inactive) | > 100 µM (inactive) | > 100 µM (inactive) | 
COc1cccc(C2c3cc4c(cc3OC(NNc3ccccc3)C2C)OCO4)c1OC (stereo not given) | 4.4 µM (inactive) | 2.82 µM (inactive) |  | 3.04 µM (inactive) | 5.06 µM (inactive) | 1.06 µM (active) | 17.6 µM (inactive) | 4.05 µM (inactive) | 3.45 µM (inactive) | 19.1 µM (inactive) | 3.58 µM (inactive) | 23.1 µM (inactive) | 6.62 µM (inactive) | 3.72 µM (inactive) | 1.65 µM (inactive) | 7.6 µM (inactive) | 2.5 µM (inactive) | 10.1 µM (inactive) | 6.35 µM (inactive)
CCCCC/C=C\C=C\CCCCCCCCC(=O)OC | > 100 µM (inactive) | 13.9 µM (inactive) | > 100 µM (inactive) |  | > 100 µM (inactive) | > 100 µM (inactive) | > 100 µM (inactive) | > 100 µM (inactive) | > 100 µM (inactive) | > 100 µM (inactive) | > 100 µM (inactive) | > 100 µM (inactive) | > 100 µM (inactive) |  | > 100 µM (inactive) | > 100 µM (inactive) | > 100 µM (inactive) | > 100 µM (inactive) | > 100 µM (inactive)
CC(C)(C)N1C(=O)[N-]/[N+](=C(/C(c2ccccc2)=[N+]2/[N-]C(=O)N(C(C)(C)C)C2=O)c2ccccc2)C1=O | > 100 µM (inactive) | > 100 µM (inactive) |  | > 100 µM (inactive) | > 100 µM (inactive) |  | > 100 µM (inactive) |  |  | > 100 µM (inactive) | > 100 µM (inactive) | > 100 µM (inactive) | > 100 µM (inactive) | > 100 µM (inactive) | > 100 µM (inactive) |  | > 100 µM (inactive) | > 100 µM (inactive) | > 100 µM (inactive)
Cc1ccc2nc3c(C(=O)NCCN(C)C)cccc3nc2c1 | 5.38 µM (inactive) |  |  |  | 3.8 µM (inactive) | 1.01 µM (active) | 5.96 µM (inactive) | 5.45 µM (inactive) | 5.65 µM (inactive) | 1.92 µM (inactive) | 4.61 µM (inactive) |  | 6.34 µM (inactive) |  | 1.91 µM (inactive) | 3.48 µM (inactive) |  | 2.76 µM (inactive) | 
